Reference: US5652363A, “Pyrido-1,4-oxazinylalkyl-benzamide derivatives” (C.D. Searle & Co., priority 1996, dated 1997)

molecular target: T1, PAF receptor (Homo sapiens, UniProt P25105); assay: Human Platelet Receptor Binding Assay ([3H]PAF binding to human platelet membrane preparation); conditions: inhibition of specific binding of 0.75 nM [3H]PAF to human platelet membranes, 30 minutes at 24° C.; read-out: PAF Inhibitor Activity Human Platelet Receptor Assay
T1 construct: tissue Lifesource, Inc. (Glenview, Ill.); host or cells: human platelets (membrane preparation)
Experimental: Human Platelet Receptor Binding Assay
Compounds of the invention were evaluated for their ability to inhibit specific binding of [^3 H]PAF to human platelet membrane preparation. Human packed platelets were obtained from Lifesource, Inc. (Glenview, Ill.) and washed 3 times with 10 mM Trizma pH 7.0, 2 mM EDTA (dipotassium salt), 150 mM KCl and then once with 10 mM Trizma 7.4, 20 mM CaCl2. The platelets were broken by freezing in a dry ice-ethanol bath, followed by thawing in 24° C. water baths. The preparation was centrifuged (40,000×g, 20 minutes, 4° C.) and the pellet suspended in 10 mM Trizma 7.4, 20 mM CaCl2, 5 mg/ml human albumin. Protein concentration in the platelet membrane preparation was determined by the Lowry method [O. H. Lowry et al., J. Biol. Chem., 193, 265-275 (1951)]. Aliquots of the membrane preparation were stored at -70° C. Each preparation was characterized for PAF receptor number and dissociation constant (Kd). In binding assays 5 μl of test compound, solubilized in DMSO, was added to polypropylene tubes along with 0.75 nM [^3 H]PAF and 200 mcl [0.075 nM] of membranes and 95 μl 10 mM Trizma 7.4, 20 mM CaCl2, 5 mg/ml human albumin-Tubes were incubated for 30 minutes at 24° C. The incubation was terminated by adding 4 ml of ice-cold 10 mM Trizma pH 7.4, 20 mM CaCl2 and 20 mg/ml BSA prior to vacuum filtration using Whatman GF/C filters. Filters were prepared and counted in a scintillation counter. All DPM values (disintergrations per minute) were corrected for background and isotope decay. Triplicate determinations for single doses were averaged. The amount of non-specific binding was subtracted from all dose averages, giving an amount of specific binding in all cases. The IC50 values for the compounds of the invention were determined by the Allfit program using percent displacement data. (Allfit is a `basic` computer program for simultaneous curve fitting of a family of signoidal dose-response curves using the four parameter logistic equation.) Results are shown in Table I. In Table 1 "c-pent" means cyclopentyl; "c-hex" means cyclohexyl; "i-Pr" means isopropyl; "Me" means methyl; and "OMe" means methoxy.

T1 sequence (P25105 whole entry): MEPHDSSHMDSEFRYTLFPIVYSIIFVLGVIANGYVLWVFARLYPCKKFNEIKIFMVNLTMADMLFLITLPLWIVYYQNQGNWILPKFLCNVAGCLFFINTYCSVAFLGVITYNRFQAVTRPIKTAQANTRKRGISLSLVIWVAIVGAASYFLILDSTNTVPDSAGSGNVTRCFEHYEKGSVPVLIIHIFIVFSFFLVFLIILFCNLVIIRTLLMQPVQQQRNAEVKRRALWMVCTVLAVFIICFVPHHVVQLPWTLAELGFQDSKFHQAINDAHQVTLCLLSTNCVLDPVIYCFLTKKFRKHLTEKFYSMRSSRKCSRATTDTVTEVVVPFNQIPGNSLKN

| SMILES | IC50 [nM] |
| --- | --- |
| COc1cc(CN2CCOc3cnccc32)ccc1C(=O)N(C1CCCC1)[C@@H]1C[C@H](C)C[C@H](C)C1 [Example 9] | 163 |
| Cc1cc(C(=O)N(C2CCCCC2)C2CCCC2)ccc1CN1CCOc2cnccc21 [Example 10, N-cyclohexyl-N-cyclopentyl-4-[(2,3-dihydro-1H-pyrido[3,4-b][1,4]oxazin-1-yl)methyl]-3-methyl-benzamide] | 219 |
| CC(C)N(C(=O)c1ccc(CN2CCOc3cnccc32)c(Br)c1)C1CCCCC1 [Example 11, 3-bromo-N-cyclohexyl-4-[(2,3-dihydro-1H-pyrido[3,4-b]-[1,4]oxazin-1-yl)methyl]-N-(1-methylethyl)benzamide] | 2 |
| COc1cc(C(=O)N(C(C)C)C2CCCCC2)ccc1CN1C(=O)COc2ncccc21 [Example 17, N-cyclohexyl-4-[{2,3-dihydro-2-oxo-1H-pyrido(2,3-b)(1,4)oxazin-1-yl}methyl]-3-methoxy-N-(1-methylethyl)benzamide] | 505 |
